Test system: rice blast
Format: cell-based
Details: 1,000 μl of 2,000 ppm test solution on oatmeal culture medium; 8 mm rice blast disc; 25° C. for 7 days; elongation length of hyphae vs without treatment

`COc1nn(-c2ccccn2)c(F)c1C(F)(F)F` [Example 2, 5-fluoro-3-methoxy-1-(2-pyridyl)-4-trifluoromethylpyrazole] gave a Preventive value of 80.
